Read-outs that look alike come from different tables or passages of the source.
Key:
[1] = for Median [IQR] AUC: TAC, all weeks, dose and weight adjusted
[2] = cited from earlier work
clinical = details: human, in vivo

For `C=CC[C@@H]1/C=C(\C)C[C@H](C)C[C@H](OC)[C@H]2O[C@@](O)(C(=O)C(=O)N3CCCC[C@H]3C(=O)O[C@H](/C(C)=C/[C@@H]3CC[C@@H](O)[C@H](OC)C3)[C@H](C)[C@@H](O)CC1=O)[C@H](C)C[C@@H]2OC` [TAC, tacrolimus], the “Change in AUC over time” value ([1]; NNRTIs dosed with TAC) was “No change”, the “Increase over time of dose and weight adjusted AUC” value ([1]; TAC given with protease inhibitors with or without NNRTIs) was ~ 30% and the “Change of Tmax over time” value ([1]; TAC with NNRTIs alone) was “decreased”. For the same molecule, the “Change of Tmax over time” value ([1]; TAC with combination PI+NNRTIs) was “doubled”, the “Median [IQR] AUC” value ([1]; +NNRTI) was 3142 [2121-5157] ng*hr/mL/mg/kg and the “Median [IQR] AUC” value ([1]; +PI) was 26889 [17208-42250] ng*hr/mL/mg/kg. For the same molecule, the “Median [IQR] AUC” value ([1]; +PI/NNRTI) was 12587 [8524-18780] ng*hr/mL/mg/kg, the “Median Tac Cx” value ([1]; W2, C0, NNRTI (n=4)) was 199 ng/mL/mg/kg and the “Median Tac Cx” value ([1]; W2, C0, PI (n=4)) was 963 ng/mL/mg/kg. The “Median Tac Cx” value ([1]; W2, C1, NNRTI (n=4)) was 225 ng/mL/mg/kg, the “Median Tac Cx” value ([1]; W2, C1, PI (n=4)) was 1045 ng/mL/mg/kg and the “Median Tac Cx” value ([1]; W2, C2, NNRTI (n=4)) was 338 ng/mL/mg/kg. For the same molecule, the “Median Tac Cx” value ([1]; W2, C2, PI (n=4)) was 1687 ng/mL/mg/kg, the “Median Tac Cx” value ([1]; W2, C3, NNRTI (n=4)) was 280 ng/mL/mg/kg and the “Median Tac Cx” value ([1]; W2, C3, PI (n=4)) was 2325 ng/mL/mg/kg. The “Median Tac Cx” value ([1]; W2, C4, NNRTI (n=4)) was 272 ng/mL/mg/kg, the “Median Tac Cx” value ([1]; W2, C4, PI (n=4)) was 2332 ng/mL/mg/kg and the “Median Tac Cx” value ([1]; W12, C0, NNRTI (n=4)) was 213 ng/mL/mg/kg. For the same molecule, the “Median Tac Cx” value ([1]; W12, C0, PI (n=4)) was 638 ng/mL/mg/kg, the “Median Tac Cx” value ([1]; W12, C1, NNRTI (n=4)) was 420 ng/mL/mg/kg and the “Median Tac Cx” value ([1]; W12, C1, PI (n=4)) was 1590 ng/mL/mg/kg. The “Median Tac Cx” value ([1]; W12, C2, NNRTI (n=4)) was 368 ng/mL/mg/kg, the “Median Tac Cx” value ([1]; W12, C2, PI (n=4)) was 2049 ng/mL/mg/kg and the “Median Tac Cx” value ([1]; W12, C3, NNRTI (n=4)) was 290 ng/mL/mg/kg. The “Median Tac Cx” value ([1]; W12, C3, PI (n=4)) was 2341 ng/mL/mg/kg, the “Median Tac Cx” value ([1]; W12, C4, NNRTI (n=4)) was 296 ng/mL/mg/kg and the “Median Tac Cx” value ([1]; W12, C4, PI (n=4)) was 2550 ng/mL/mg/kg. The “Median Tac Cx” value ([1]; W28, C0, NNRTI (n=3)) was 193 ng/mL/mg/kg, the “Median Tac Cx” value ([1]; W28, C1, NNRTI (n=3)) was 497 ng/mL/mg/kg and the “Median Tac Cx” value ([1]; W28, C2, NNRTI (n=3)) was 368 ng/mL/mg/kg. For the same molecule, the “Median Tac Cx” value ([1]; W28, C3, NNRTI (n=3)) was 275 ng/mL/mg/kg, the “Median Tac Cx” value ([1]; W28, C4, NNRTI (n=3)) was 223 ng/mL/mg/kg and the “Median Tac Cx” value ([1]; W52, C0, NNRTI (n=4)) was 148 ng/mL/mg/kg. The “Median Tac Cx” value ([1]; W52, C1, NNRTI (n=4)) was 301 ng/mL/mg/kg, the “Median Tac Cx” value ([1]; W52, C2, NNRTI (n=4)) was 322 ng/mL/mg/kg and the “Median Tac Cx” value ([1]; W52, C3, NNRTI (n=4)) was 242 ng/mL/mg/kg. For the same molecule, the “Median Tac Cx” value ([1]; W52, C4, NNRTI (n=4)) was 208 ng/mL/mg/kg, the “Association of higher TAC levels with new onset DM (OR)” value ([2]; HCV-positive liver transplant, p=0.12) was 2.21 and the “Correlation of higher TAC trough levels with rejection” value ([2]; NIH multicenter trial) was “decreased rejection rates”. It also gave a Tmax (clinical) of 2 to 3 h.
